Converted amounts (≈) assume the structure as drawn.
Tests used:
Type in all cases: cell-based
[1] = tested on: Streptococcus haemolyticus A 1088; experiment: MIC, agar serial dilution test; details: A1088
[2] = tested on: Diplococcus pneumoniae L 54; experiment: MIC, agar serial dilution test; details: Streptococcus pneumoniae, L54
Haemophilus suis A 2096 [3] = experiment: MIC, agar serial dilution test; details: A2096
[4] = tested on: Salmonella typhimurium R 172; experiment: MIC, agar serial dilution test; details: Salmonella enterica
[5] = tested on: Pseudomonas aeruginosa H 10; experiment: MIC, agar serial dilution test; details: H10
[6] = tested on: Pseudomonas aeruginosa 2396; experiment: MIC, agar serial dilution test
[7] = tested on: Pseudomonas aeruginosa A 1058; experiment: MIC, agar serial dilution test; details: A1058
Proteus rettgeri A 821 = experiment: MIC, agar serial dilution test; details: Providencia rettgeri, A821
Proteus mirabilis H 3 = experiment: MIC, agar serial dilution test; details: H3
Proteus mirabilis L 93 = experiment: MIC, agar serial dilution test; details: L93
Proteus mirabilis A 1200 = experiment: MIC, agar serial dilution test; details: A1200
[8] = tested on: Streptococcus faecalis L 80; experiment: MIC, agar serial dilution test; details: Enterococcus faecalis, L80
[9] = tested on: Pasteurella multocida A 723; experiment: MIC, agar serial dilution test; details: A723
[10] = tested on: Klebsiella pneumoniae A 809; experiment: MIC, agar serial dilution test; details: A809
Haemophilus suis A 2096 [11] = experiment: MIC, micro serial dilution test; details: A2096, micro serial dilution test (brackets)

MIC [2] | MIC (Haemophilus suis A 2096 [3]) | MIC [4] | MIC [5] | MIC [6] | MIC [7] | MIC (Proteus rettgeri A 821) | MIC (Proteus mirabilis H 3) | MIC (Proteus mirabilis L 93) | MIC (Proteus mirabilis A 1200) | MIC [8] | MIC [9] | MIC [10] | MIC (Haemophilus suis A 2096 [11]) | Structure (SMILES) | MIC [1]
0.05 µg/mL (≈ 0.143 µM) | 0.15 µg/mL (≈ 0.429 µM) | 3 µg/mL (≈ 8.59 µM) | > 100 µg/mL | 50 µg/mL (≈ 143 µM) | 50 µg/mL (≈ 143 µM) | 3 µg/mL (≈ 8.59 µM) | 3 µg/mL (≈ 8.59 µM) | 3 µg/mL (≈ 8.59 µM) | 3 µg/mL (≈ 8.59 µM) | – | – | – | – | CC1(C)S[C@@H]2[C@H](NC(=O)[C@H](N)c3ccccc3)C(=O)N2[C@H]1C(=O)O [ampicillin] | 0.75 µg/mL (≈ 2.15 µM)
0.75 µg/mL (≈ 1.98 µM) | – | 6 µg/mL (≈ 15.9 µM) | – | – | 37 µg/mL (≈ 97.8 µM) | 0.3 µg/mL (≈ 0.793 µM) | – | 0.5 µg/mL (≈ 1.32 µM) | – | 25 µg/mL (≈ 66.1 µM) | 0.2 µg/mL (≈ 0.529 µM) | > 100 µg/mL | 0.2 µg/mL (≈ 0.529 µM) | CC1(C)S[C@@H]2[C@H](NC(=O)C(C(=O)O)c3ccccc3)C(=O)N2[C@H]1C(=O)O (stereo partly drawn) [carbenicillin] | 0.1 µg/mL (≈ 0.264 µM)

Reference: patent US4067986A, “Novel penicillanic acid” (Gist-Brocades N.V., priority 1974, dated 1978)
